Counter-ions that a name gives are not always drawn.

The test concerns the target T1, PDE10A (Homo sapiens, UniProt Q9Y233).
T1 construct: made in house; host or cells: Sf9 insect cells (baculovirus, pVL1393)
Kind of test: Activity of inhibiting PDE10A activity ([3H]cAMP decomposition inhibiting test). It is filed as biochemical. The conditions noted are these: substrate [3H]cAMP 0.2 μmol/L. How it is done:
Activity of Inhibiting PDE10A Activity (^3H]cAMP Decomposition Inhibiting Test)
PCR was performed using DNAs having base sequences described in SEQ ID NO. 1 and SEQ ID NO. 2 as primers and human kidney cDNA as a template to prepare a plasmid containing amplified fragments. The plasmid was cleaved with restriction endonucleases Pst I and Xba I to obtain a Pst I-Xba I fragment of 0.7 kb.
Meanwhile, Est clone (Cosmo Bio, Tokyo) of GenBank, ACCESSION WO 4835 was cleaved with restriction endonucleases Kpn I and Pst I to obtain a Kpn I-Pst I fragment of 1.5 kb.
The resulting Pst I-Xba I fragment of 0.7 kb and Kpn I-Pst I fragment of 1.5 kb were subcloned in a Kpn I-Xba I site of pBluescript II KS(−) (STRATAGENE, La Jolla, Calif., USA),to construct a plasmid having a cDNA fragment completely including a catalyst region of PDE10A. Subsequently, the plasmid was cleaved with restriction endonucleases Kpn I and Not I to obtain a Kpn I-Not I fragment of 2.2 kb.
The resulting Kpn I-Not I fragment of 2.2 kb and a linker having a BamH I-Kpn I cleavage surface prepared by synthetic DNA having base sequences described in SEQ ID NOS. 3 and 4 were subcloned in a BamH I-Not I site of pVL1393 (PharMingen, San Diego, Calif., USA) to obtain a plasmid for preparation of Baculovirus. The plasmid contains a DNA encoding a peptide in which methionine, FLAG tag and a peptide having a 64th to 779th amino acid sequence of PDE10A [GenBank, ACCESSION NP 006652: Gene, vol. 234, p. 109 (1999), J. Biol. Chem., vol. 274, p. 18438 (1999)] are bound in the order.
The above gene recombinational manipulation was performed according to the method described in Molecular Cloning, 2nd edition, Cold Spring Harbor Laboratory Press, New York (1989).
The expression of PDE10A was conducted according to the Baculovirus expression vector system manual (PharMingen) using insect cells. As insect cells, Sf9 cells (Asahi Technoglass, Tokyo) were used. Sf9 cells were infected with a supernatant (co-transfection sup) containing PDE10A expression virus prepared according to the manual, and cultured at 27° C. for 4 days. The cells were recovered, washed with a phosphate-buffered saline (PBS), and then suspended in an extraction solution [20 mmol/L Tris-acetate (pH 7.5), 2 mmol/L MgCl2, 1 mmol/L dithiothreitol, 1 mmol/L ethylenediaminetetraacetic acid (EDTA), 0.25 mol/L sucrose, 250 unit/mL aprotinin, 40 μg/mL phenylmethylsulfonyl fluoride, and 1 μg/mL pepstatin A]. The cells were disrupted in ice with the maximum output under conditions of 5 seconds and five times using an ultrasonic disruption machine (TOMY model UR-200R, TOMY, Tokyo). A soluble fraction was obtained by centrifugation under 10,000 rpm of the fraction at 4° C. for 30 minutes, and the resulting soluble fraction was used for measuring the PDE activity.
The PDE activity was measured according to the method described in Methods Enzymol., vol. 159, p. 457 (1988).
Using [^3H]cAMP as a substrate, an enzyme reaction was conducted in a reaction solution containing 300 μL of 50 mmol/L N,N-bis (2-hydroxyethyl)-2-aminoethanesulfonic acid (pH 7.2), 1 mmol/L MgCl2 and 0.1 mmol/L ethylene glycol-bis (β-aminoethyl ether)-N,N,N′,N′-tetraacetic acid: EGTA). The concentration of the substrate was 0.2 μmol/L. To 95 μL of an enzyme dilute solution were added 5 μL of a test compound (DMSO solution) and 200 μL of a substrate solution. The mixture was incubated at 30° C. for 20 minutes, and then HCl was added to stop the reaction. The reaction product (5′-AMP) was converted to adenosine using 5′-nucleotidase, and separated the unreacted product from the reactant by DEAE-Sephadex A-25 column (Amersham Pharmacia Biotech, Uppsala, Sweden). The elute was moved to scintillation vials, 6 mL of Ultima Gold (Packard Instrument, Meriden, Conn., USA) was added, and the radioactivity was measured for 2 minutes using a liquid scintillation counter (Beckman LS6500, Beckman, Tokyo),. […]

T1 sequence (Q9Y233 340-1055): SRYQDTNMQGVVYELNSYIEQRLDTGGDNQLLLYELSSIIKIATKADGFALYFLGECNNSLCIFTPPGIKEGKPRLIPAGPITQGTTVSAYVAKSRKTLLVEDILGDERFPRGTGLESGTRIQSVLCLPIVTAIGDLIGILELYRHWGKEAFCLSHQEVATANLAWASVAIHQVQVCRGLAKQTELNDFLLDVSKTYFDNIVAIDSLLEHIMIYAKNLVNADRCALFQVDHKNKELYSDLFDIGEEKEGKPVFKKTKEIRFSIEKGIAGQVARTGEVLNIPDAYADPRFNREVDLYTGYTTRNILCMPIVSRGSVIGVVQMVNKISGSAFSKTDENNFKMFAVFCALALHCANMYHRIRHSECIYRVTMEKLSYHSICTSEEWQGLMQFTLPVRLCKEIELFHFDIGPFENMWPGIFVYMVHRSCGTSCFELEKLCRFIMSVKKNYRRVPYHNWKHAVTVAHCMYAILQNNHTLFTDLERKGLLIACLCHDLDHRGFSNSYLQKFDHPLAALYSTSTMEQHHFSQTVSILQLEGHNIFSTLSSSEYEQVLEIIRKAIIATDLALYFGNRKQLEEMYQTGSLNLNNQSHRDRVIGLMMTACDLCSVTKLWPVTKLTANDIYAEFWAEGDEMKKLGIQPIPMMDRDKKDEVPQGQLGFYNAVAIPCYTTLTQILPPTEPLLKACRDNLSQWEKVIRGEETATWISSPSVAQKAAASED

What is called inhibition is the percentage by which the read-out fell short of the control. Turning to `Cc1c(-c2ccc(-c3ccccc3CN3CCOCC3)cc2)nc2ccc(F)cc2c1CO` [Compound 12, 6-Fluoro-4-hydroxymethyl-3-methyl-2-(2′-morpholinomethylbiphenyl-4-yl)quinoline dihydrochloride], the inhibition at 1 µM (Test compound concentration 1 μmol/L, read-out: [3H] cAMP decomposition inhibition rate (%)) came to 96%. Also, the IC50 (read-out: IC50 (concentration at which to inhibit [3H]cAMP decomposition by 50%)) was found to be 68 nM.

The values are drawn from patent US20060111368A1, “Phosphodiesterase inhibitor” (Kyowa Hakko Kogyo Co., Ltd., priority 2002, published 2006).
